ChEMBL document CHEMBL1154635, “Mitoxantrone analogues as ligands for a stem-loop structure of tau pre-mRNA” (J Med Chem, 2009)
pEC50, pIC50: −log10 of the molar value.

How the values were obtained:
Nucleic Acid [1] = assay: Binding affinity to tau stem-loop RNA assessed as inhibition of RNA stem-loop unfolding; type: nucleic-acid assay
Nucleic Acid [2] = assay: Displacement of fluorescent pyrene-neomycin conjugate from tau stem-loop RNA; type: nucleic-acid assay

O=C1c2c(NCCNCCO)ccc(NCCNCCO)c2C(=O)c2c(NCCNCCO)ccc(NCCNCCO)c21
pIC50 (Nucleic Acid [1]): 6.47
pEC50 (Nucleic Acid [2]): 5.92

Nc1ccc(N)c2c1C(=O)c1c(O)ccc(O)c1C2=O
pIC50 (Nucleic Acid [1]): < 4.00
pEC50 (Nucleic Acid [2]): < 4.00

NCCNCCNCCNc1ccc(NCCNCCNCCN)c2c1C(=O)c1c(O)ccc(O)c1C2=O
pIC50 (Nucleic Acid [1]): 6.89
pEC50 (Nucleic Acid [2]): 6.89

CC(C)(C)OC(=O)NCCNCCNc1ccc(NCCNCCO)c2c1C(=O)c1c(O)ccc(O)c1C2=O
pIC50 (Nucleic Acid [1]): 5.62
pEC50 (Nucleic Acid [2]): 4.92

NCCNCCNc1ccc(NCCNCCN)c2c1C(=O)c1c(O)ccc(O)c1C2=O
pIC50 (Nucleic Acid [1]): 6.89
pEC50 (Nucleic Acid [2]): 6.80

Nc1ccc(NCCNCCO)c2c1C(=O)c1c(O)ccc(O)c1C2=O
pIC50 (Nucleic Acid [1]): 5.24
pEC50 (Nucleic Acid [2]): 4.54

O=C1c2c(O)ccc(NCCNCCO)c2C(=O)c2c(NCCNCCO)ccc(O)c21
pIC50 (Nucleic Acid [1]): 5.82
pEC50 (Nucleic Acid [2]): 5.36

NCCNCCNc1ccc(NCCNCCO)c2c1C(=O)c1c(O)ccc(O)c1C2=O
pIC50 (Nucleic Acid [1]): 6.74
pEC50 (Nucleic Acid [2]): 6.51

O=C1c2c(O)ccc(O)c2C(=O)c2c(NCCOCCO)ccc(NCCNCCO)c21
pIC50 (Nucleic Acid [1]): 5.24
pEC50 (Nucleic Acid [2]): 4.85

O=C1c2c(O)ccc(NCCNCCO)c2C(=O)c2c(NCCNCCO)ccc(NCCNCCO)c21
pIC50 (Nucleic Acid [1]): 6.38
pEC50 (Nucleic Acid [2]): 6.10

O=C1c2c(F)ccc(F)c2C(=O)c2c(NCCNCCO)ccc(NCCNCCO)c21
pIC50 (Nucleic Acid [1]): 5.64
pEC50 (Nucleic Acid [2]): 4.80

NCCNCCNCCNc1ccc(NCCNCCO)c2c1C(=O)c1c(O)ccc(O)c1C2=O
pIC50 (Nucleic Acid [1]): 6.64
pEC50 (Nucleic Acid [2]): 6.42

O=C1c2c(O)ccc(O)c2C(=O)c2c(NCCNCCO)ccc(F)c21
pIC50 (Nucleic Acid [1]): 5.24
pEC50 (Nucleic Acid [2]): 4.12

Nc1ccc(N)c2c1C(=O)c1c(N)ccc(N)c1C2=O
pIC50 (Nucleic Acid [1]): < 4.00
pEC50 (Nucleic Acid [2]): < 4.00

Nc1ccc(O)c2c1C(=O)c1c(N)ccc(O)c1C2=O
pIC50 (Nucleic Acid [1]): < 4.00
pEC50 (Nucleic Acid [2]): < 4.00

O=C1c2c(O)ccc(O)c2C(=O)c2c(NCCNCCO)ccc(NCCNCCO)c21 [MITOXANTRONE]
pIC50 (Nucleic Acid [1]): 6.34
pEC50 (Nucleic Acid [2]): 6.05
